Key:
Experiment in all cases: normalised viability (% of control), CellTiter-Blue; higher = more viable cells (about 100 = DMSO control)
Conditions in all cases: incubation time: 72 h
DU-4475 [1] = test system: DU-4475
Experimental: (§1)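 DSRT, CellTiter-Blue viability, 72 h incubation. Signal is normalised to DMSO and benzethonium chloride controls. Value is the normalised response at dose 7.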

CAL-148 [2] = test system: CAL-148
Experimental: as §1

CAL-85-1 [3] = test system: CAL-85-1
Experimental: as §1

HDQ-P1 [4] = test system: HDQ-P1
Experimental: as §1

MDA-MB-453 [5] = test system: MDA-MB-453
Experimental: as §1

CAL-51 [6] = test system: CAL-51
Experimental: as §1

DU-4475 [7] = test system: DU-4475; remark: listed apart in the source
Experimental: (§2)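 DSRT, CellTiter-Blue viability, 72 h incubation. Signal is normalised to DMSO and benzethonium chloride controls. Value is the normalised response at dose 9.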

CAL-148 [8] = test system: CAL-148; remark: listed apart in the source
Experimental: as §2

CAL-85-1 [9] = test system: CAL-85-1; remark: listed apart in the source
Experimental: as §2

HDQ-P1 [10] = test system: HDQ-P1; remark: listed apart in the source
Experimental: as §2

MDA-MB-453 [11] = test system: MDA-MB-453; remark: listed apart in the source
Experimental: as §2

CAL-51 [12] = test system: CAL-51; remark: listed apart in the source
Experimental: as §2

DU-4475 [13] = test system: DU-4475; remark: listed apart in the source
Experimental: (§3)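 DSRT, CellTiter-Blue viability, 72 h incubation. Signal is normalised to DMSO and benzethonium chloride controls. Value is the normalised response at dose 6.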

CAL-148 [14] = test system: CAL-148; remark: listed apart in the source
Experimental: as §3

CAL-85-1 [15] = test system: CAL-85-1; remark: listed apart in the source
Experimental: as §3

HDQ-P1 [16] = test system: HDQ-P1; remark: listed apart in the source
Experimental: as §3

MDA-MB-453 [17] = test system: MDA-MB-453; remark: listed apart in the source
Experimental: as §3

CAL-51 [18] = test system: CAL-51; remark: listed apart in the source
Experimental: as §3

Compound | normalised viability (DU-4475 [13]) | normalised viability (CAL-148 [14]) | normalised viability (CAL-85-1 [15]) | normalised viability (HDQ-P1 [16]) | normalised viability (MDA-MB-453 [17]) | normalised viability (CAL-51 [18]) | further results
CC[C@@]1(O)C(=O)OCc2c1cc1n(c2=O)Cc2cc3ccccc3nc2-1 [Camptothecin] (500 nM) |  |  |  |  |  |  | normalised viability (DU-4475 [1]): 10.7%; normalised viability (CAL-148 [2]): 8%; normalised viability (CAL-85-1 [3]): 40%; normalised viability (HDQ-P1 [4]): 50.3%; normalised viability (MDA-MB-453 [5]): 23.7%; normalised viability (CAL-51 [6]): 5.8%
CC[C@@]1(O)C(=O)OCc2c1cc1n(c2=O)Cc2cc3ccccc3nc2-1 [Camptothecin] (5000 nM) |  |  |  |  |  |  | normalised viability (DU-4475 [7]): -0.07%; normalised viability (CAL-148 [8]): 0.33%; normalised viability (CAL-85-1 [9]): 13.9%; normalised viability (HDQ-P1 [10]): 24.2%; normalised viability (MDA-MB-453 [11]): 5.48%; normalised viability (CAL-51 [12]): 1.8%
O=c1[nH]cc(F)c(=O)[nH]1 [Fluorouracil] (300 nM) | 102% | 96.7% | 87.2% | 87.2% | 85.7% | 101% | 
C[C@@H]1C=C2C(=O)O[C@@H]3CC[C@H](C1)[C@]23O [Galiellalactone] (1500 nM) | 98.1% | 138% | 100% | 65.4% | 103% | 106% | 
COC1=C2C[C@@H](C)C[C@H](OC)[C@H](O)[C@@H](C)/C=C(\C)[C@H](OC(N)=O)[C@@H](OC)/C=C\C=C(/C)C(=O)NC(=CC1=O)C2=O [Geldanamycin] (300 nM) | 0.05% | 28.9% | 47.7% | 46.5% | 6.01% | 74.5% | 
O=P(O)(NCCCl)NCCCl [Ifosfamide mustard] (300 nM) | 92.7% | 110% | 98% | 54% | 114% | 100% | 
O=P(O)(NCCCl)NCCCl [Ifosfamide mustard] (1000 nM) |  |  |  |  |  |  | normalised viability (DU-4475 [1]): 112%; normalised viability (CAL-148 [2]): 111%; normalised viability (CAL-85-1 [3]): 89.4%; normalised viability (HDQ-P1 [4]): 119%; normalised viability (MDA-MB-453 [5]): 104%; normalised viability (CAL-51 [6]): 107%
O=P(O)(NCCCl)NCCCl [Ifosfamide mustard] (10000 nM) |  |  |  |  |  |  | normalised viability (DU-4475 [7]): 96.1%; normalised viability (CAL-148 [8]): 105%; normalised viability (CAL-85-1 [9]): 87.1%; normalised viability (HDQ-P1 [10]): 105%; normalised viability (MDA-MB-453 [11]): 99.8%; normalised viability (CAL-51 [12]): 94.3%
Cn1cnc2c(F)c(Nc3ccc(Br)cc3F)c(C(=O)NOCCO)cc21 [MEK-162] (30 nM) | 61.2% | 95.1% | 101% | 47.6% | 118% | 96.5% | 
CCOc1cc2ncc(C#N)c(Nc3ccc(OCc4ccccn4)c(Cl)c3)c2cc1NC(=O)/C=C/CN(C)C [Neratinib] (30 nM) | 100% | 85.9% | 107% | 94.3% | 81.2% | 96% | 
COc1ccc(C2=N[C@@H](c3ccc(Cl)cc3)[C@@H](c3ccc(Cl)cc3)N2C(=O)N2CCNC(=O)C2)c(OC(C)C)c1 [Nutlin-3] (300 nM) | 84.8% | 96.3% | 89.9% | 66.2% | 91.2% | 99% | 
COC1=CC(c2cc3ccccc3[nH]2)=N/C1=C\c1[nH]c(C)cc1C [Obatoclax] (300 nM) | 75% | 91.1% | 66.2% | 40.7% | 72.2% | 95.7% | 
COC(=O)C[C@](O)(CCCC(C)(C)O)C(=O)O[C@@H]1C(OC)=C[C@]23CCCN2CCc2cc4c(cc2[C@H]13)OCO4 [Omacetaxine mepesuccinate] (300 nM) | 9.29% | 13.5% | 4.19% | 10.2% | 20.1% | 7.35% | 
COC(=O)C[C@](O)(CCCC(C)(C)O)C(=O)O[C@@H]1C(OC)=C[C@]23CCCN2CCc2cc4c(cc2[C@H]13)OCO4 [Omacetaxine mepesuccinate] (1000 nM) |  |  |  |  |  |  | normalised viability (DU-4475 [1]): 9.53%; normalised viability (CAL-148 [2]): 12.4%; normalised viability (CAL-85-1 [3]): 3.04%; normalised viability (HDQ-P1 [4]): 13.1%; normalised viability (MDA-MB-453 [5]): 15.1%; normalised viability (CAL-51 [6]): 4.98%
